Molecules are shown by their SMILES.

Usually Ki stands for a measure of affinity in units of concentration, obtained from inhibition or displacement. Higher therefore signals weaker binding. As a reminder, the IC50 is the midpoint of a concentration-inhibition curve. The low end stands for inhibition by little substance, the high end for a need for much substance.

In assay [1] the target is Delta-type opioid receptor (Rattus norvegicus, UniProt P33533). Nature of the assay: Displacement of [3H][Ile5,6]deltorphin2 from delta opioid receptor in rat brain membrane. Format: cell membranes. (In general: Loss of bound radioactivity is the signal in a displacement assay; it reports binding, not function.)
Chain of Delta-type opioid receptor (P33533 whole entry): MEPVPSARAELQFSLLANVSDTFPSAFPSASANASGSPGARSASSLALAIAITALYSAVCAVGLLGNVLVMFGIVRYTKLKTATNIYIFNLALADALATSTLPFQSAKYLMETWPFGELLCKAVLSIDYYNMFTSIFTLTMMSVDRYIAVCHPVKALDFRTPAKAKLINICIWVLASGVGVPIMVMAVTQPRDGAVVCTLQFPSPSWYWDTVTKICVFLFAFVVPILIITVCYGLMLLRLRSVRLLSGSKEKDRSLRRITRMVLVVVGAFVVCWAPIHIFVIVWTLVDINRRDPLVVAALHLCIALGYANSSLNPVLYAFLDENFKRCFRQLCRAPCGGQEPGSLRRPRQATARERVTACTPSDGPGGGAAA
The target of the next assay is Mu-type opioid receptor (Rattus norvegicus, UniProt P33535). Nature of the assay: Displacement of [3H]DAMGO from mu opioid receptor in rat brain membrane. Format: cell membranes.
Chain of Mu-type opioid receptor (P33535 whole entry): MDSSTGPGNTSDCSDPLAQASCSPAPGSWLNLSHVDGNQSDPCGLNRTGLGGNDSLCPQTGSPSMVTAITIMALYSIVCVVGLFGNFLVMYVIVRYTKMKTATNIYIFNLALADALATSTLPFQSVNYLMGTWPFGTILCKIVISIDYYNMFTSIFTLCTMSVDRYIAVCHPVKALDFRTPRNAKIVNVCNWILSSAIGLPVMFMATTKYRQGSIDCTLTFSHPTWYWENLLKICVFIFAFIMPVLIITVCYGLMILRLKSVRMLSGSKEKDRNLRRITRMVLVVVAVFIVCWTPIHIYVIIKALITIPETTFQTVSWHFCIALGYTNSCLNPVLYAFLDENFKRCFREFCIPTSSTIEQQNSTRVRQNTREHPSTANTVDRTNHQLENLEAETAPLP
The next assay deals with Acetylcholinesterase (Electrophorus electricus, UniProt O42275). Nature of the assay: Inhibition of electric eel AChE by Ellman's method. In general terms: DTNB colorimetry detects thiols as they appear.
Chain of Acetylcholinesterase (O42275 whole entry): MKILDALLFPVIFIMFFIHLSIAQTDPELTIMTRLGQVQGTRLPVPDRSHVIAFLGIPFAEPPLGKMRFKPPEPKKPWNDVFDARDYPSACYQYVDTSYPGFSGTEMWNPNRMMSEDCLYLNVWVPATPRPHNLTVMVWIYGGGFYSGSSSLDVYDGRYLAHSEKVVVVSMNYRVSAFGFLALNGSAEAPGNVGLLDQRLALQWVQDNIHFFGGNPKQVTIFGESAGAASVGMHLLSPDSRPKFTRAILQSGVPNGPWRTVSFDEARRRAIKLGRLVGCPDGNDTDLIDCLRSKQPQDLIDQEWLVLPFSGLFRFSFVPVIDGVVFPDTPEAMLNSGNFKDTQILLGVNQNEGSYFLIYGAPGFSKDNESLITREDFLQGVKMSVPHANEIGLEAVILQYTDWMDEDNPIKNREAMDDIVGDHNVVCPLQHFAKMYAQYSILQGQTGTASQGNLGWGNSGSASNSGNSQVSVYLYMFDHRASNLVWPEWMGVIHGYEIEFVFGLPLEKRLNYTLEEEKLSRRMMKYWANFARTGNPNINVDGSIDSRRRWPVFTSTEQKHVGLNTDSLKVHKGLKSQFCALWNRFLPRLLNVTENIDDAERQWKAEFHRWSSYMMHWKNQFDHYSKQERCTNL
The target in assay [2] is Kappa-type opioid receptor (Cavia porcellus, UniProt P41144). The assay can be described thus: Displacement of [3H]U69593 from kappa opioid receptor in guinea pig brain membrane. In kind it is cell membranes.
Chain of Kappa-type opioid receptor (P41144 whole entry): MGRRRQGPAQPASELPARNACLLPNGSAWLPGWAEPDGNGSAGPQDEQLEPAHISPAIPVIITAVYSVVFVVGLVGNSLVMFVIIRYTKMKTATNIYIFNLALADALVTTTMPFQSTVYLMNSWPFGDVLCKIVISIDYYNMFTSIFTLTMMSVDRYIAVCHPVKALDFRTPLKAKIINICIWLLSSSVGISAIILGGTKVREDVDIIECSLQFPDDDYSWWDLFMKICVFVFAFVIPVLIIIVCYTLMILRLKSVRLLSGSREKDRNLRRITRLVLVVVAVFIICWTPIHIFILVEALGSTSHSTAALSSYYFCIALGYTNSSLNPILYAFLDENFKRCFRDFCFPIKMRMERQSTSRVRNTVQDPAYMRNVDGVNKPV

For the compound `COC1CCC2C(Cc3cccc(O)c3)=NCCC2C1` (stereo unspecified), the values for the Ki (in assay [1]; at Mu-type opioid receptor; in assay [2]) were more than 10000 nM, 2320 nM and more than 10000 nM, respectively. For the same compound, half-maximal inhibition against Acetylcholinesterase (IC50) required 43100 nM.
In the case of `COC1=CCC2=C(CCNC2Cc2ccccc2O)C1` (stereo unspecified), the Ki (in assay [1]; at Mu-type opioid receptor; in assay [2]) was more than 10000 nM in each case. This compound had an IC50 against Acetylcholinesterase of 138000 nM.
Take `C=CCN1CC[C@]23CC(=O)CC[C@H]2[C@H]1Cc1cccc(OC)c13`: the Ki in assay [1] was 217 nM; at Mu-type opioid receptor, 6.55 nM; in assay [2], 113 nM.
For the compound `CCO[C@@]12CCC(=O)C[C@@]13CCN(C)[C@@H]2Cc1cccc(O)c13`, the results for the Ki (in assay [1]; at Mu-type opioid receptor; in assay [2]) were 316 nM, 20.2 nM and 33.1 nM, respectively. Also, on Acetylcholinesterase, the IC50 turned out to be 37100 nM.
Consider `O=CN1CC[C@]23CC(=O)CC[C@H]2[C@H]1Cc1c(O)ccc(O)c13`, for which the Ki turned out to be 1250 nM in assay [1], 67.2 nM on Mu-type opioid receptor and 328 nM in assay [2].
As for `O=CN1CC[C@]23CC(=O)CC[C@H]2[C@H]1CC1C(=O)C=CC(=O)C13` (stereo partly specified), the results for the Ki (in assay [1]; on Mu-type opioid receptor; in assay [2]) were 12.2 nM, 0.46 nM and 43.2 nM, respectively. This compound also registered an IC50 at Acetylcholinesterase of 12700 nM.
As to `COc1cccc(CC2=NCCc3cc(OC)ccc32)c1`, the IC50 against Acetylcholinesterase turned out to be 42900 nM.
In the case of `C=CCN1CC[C@]23CC(=O)CC[C@H]2[C@H]1Cc1cccc(OC(C)=O)c13`, the IC50 against Acetylcholinesterase is 193000 nM.
With `O=CN1CC[C@]23c4c5cccc4O[C@H]2C(=O)CC[C@H]3[C@H]1C5`, the Ki (in assay [1]; at Mu-type opioid receptor; in assay [2]) was more than 10000 nM in each case. Also, on Acetylcholinesterase, the IC50 was found to be 60300 nM.
`CCCCCCOc1cccc2c1[C@]13CCN(CC4CC4)[C@H](C2)[C@]1(OC)C=CC(=O)C3` registered an IC50 at Acetylcholinesterase of 405000 nM.
Turning to `CCO[C@@]12CCC(=O)[C@]3(C)Oc4c(O)ccc5c4[C@@]31CCN(C)[C@@H]2C5`, the Ki in assay [1] stood at 4.8 nM; on Mu-type opioid receptor it was 0.1 nM; in assay [2] it was 10.2 nM.
`COc1cccc2c1[C@]13CCN(C)[C@H](C2)[C@]1(OC)CCC(=O)C3`: the Ki was 101 nM in assay [1], 1.15 nM at Mu-type opioid receptor and 403 nM in assay [2]. This compound yielded an IC50 against Acetylcholinesterase of 46200 nM.
Consider `CO[C@@]12CCC(=O)[C@@H]3Oc4cccc5c4[C@@]31CCN(C)[C@@H]2C5`, for which the midpoint of inhibition at Acetylcholinesterase, the IC50, lay at 140000 nM.
Same read-out and setting: to `CN1CC[C@]23c4c5cccc4O[C@H]2C(=O)CC[C@@]3(O)[C@H]1C5` belongs 65300 nM.
Turning to `C=CCN1CC[C@]23CC(=O)CC[C@@]2(OC)[C@H]1Cc1cccc(OC)c13`, the Ki in assay [1] turned out to be 210 nM; at Mu-type opioid receptor, 2 nM; in assay [2], 567 nM.
Consider `C=CCN1CC[C@@]23CCCC[C@@H]2[C@@H]1Cc1ccc(O)cc13` [DEXTALLORPHAN], for which, at Acetylcholinesterase, the Ki was 20000 nM. In other words, the double-digit micromolar range.
The same measure, in the same setting: to `CN1CC[C@@]23CCCC[C@@H]2[C@@H]1Cc1ccc(O)cc13` [DEXTRORPHAN] belongs 20000 nM.
As to `C=CCN1CC[C@]23CCCC[C@H]2[C@H]1Cc1ccc(O)cc13` [LEVALLORPHAN], the affinity on Acetylcholinesterase corresponds to a Ki of 12000 nM. This Ki lies about 1.7-fold lower than the previous one.
Take `CN1CC[C@]23CCCC[C@H]2[C@H]1Cc1ccc(O)cc13` [LEVORPHANOL]: affinity at Acetylcholinesterase was put at a Ki of 25000 nM. This Ki lies about 2.1-fold higher than the previous one.
In turn, `COc1ccc2c3c1O[C@H]1C(=O)CC[C@@]4(O)[C@@H](C2)N(C)CC[C@]314` [OXYCODONE] yielded an IC50 against Acetylcholinesterase of 76200 nM.

The values above are taken from ChEMBL document CHEMBL1250431, “Morphinans and isoquinolines: acetylcholinesterase inhibition, pharmacophore modeling, and interaction with opioid receptors” (Bioorg Med Chem, 2010).
